{
  "source": "ChEMBL document CHEMBL4602703",
  "about": "“Lead Optimization of a Pyrrole-Based Dihydroorotate Dehydrogenase Inhibitor Series for the Treatment of Malaria” (J Med Chem, 2020)",
  "key": {"[1]": {"test": "Intrinsic clearance in human liver microsomes assessed as per mg protein", "assay_type": "ADME, Microsome"}, "Plasmodium falciparum [2]": {"system": "Plasmodium falciparum", "assay_type": "functional, organism-based", "conditions": "R10C1B, 72 h; call rule not given here"}, "L1210": {"system": "L1210", "test": "Cytotoxicity against mouse L1210 cells assessed as reduction in cell viability", "assay_type": "cell-based"}, "[3]": {"target": "Voltage-gated inwardly rectifying potassium channel KCNH2 (Homo sapiens, UniProt Q12809)", "sequence (Q12809 whole entry)": "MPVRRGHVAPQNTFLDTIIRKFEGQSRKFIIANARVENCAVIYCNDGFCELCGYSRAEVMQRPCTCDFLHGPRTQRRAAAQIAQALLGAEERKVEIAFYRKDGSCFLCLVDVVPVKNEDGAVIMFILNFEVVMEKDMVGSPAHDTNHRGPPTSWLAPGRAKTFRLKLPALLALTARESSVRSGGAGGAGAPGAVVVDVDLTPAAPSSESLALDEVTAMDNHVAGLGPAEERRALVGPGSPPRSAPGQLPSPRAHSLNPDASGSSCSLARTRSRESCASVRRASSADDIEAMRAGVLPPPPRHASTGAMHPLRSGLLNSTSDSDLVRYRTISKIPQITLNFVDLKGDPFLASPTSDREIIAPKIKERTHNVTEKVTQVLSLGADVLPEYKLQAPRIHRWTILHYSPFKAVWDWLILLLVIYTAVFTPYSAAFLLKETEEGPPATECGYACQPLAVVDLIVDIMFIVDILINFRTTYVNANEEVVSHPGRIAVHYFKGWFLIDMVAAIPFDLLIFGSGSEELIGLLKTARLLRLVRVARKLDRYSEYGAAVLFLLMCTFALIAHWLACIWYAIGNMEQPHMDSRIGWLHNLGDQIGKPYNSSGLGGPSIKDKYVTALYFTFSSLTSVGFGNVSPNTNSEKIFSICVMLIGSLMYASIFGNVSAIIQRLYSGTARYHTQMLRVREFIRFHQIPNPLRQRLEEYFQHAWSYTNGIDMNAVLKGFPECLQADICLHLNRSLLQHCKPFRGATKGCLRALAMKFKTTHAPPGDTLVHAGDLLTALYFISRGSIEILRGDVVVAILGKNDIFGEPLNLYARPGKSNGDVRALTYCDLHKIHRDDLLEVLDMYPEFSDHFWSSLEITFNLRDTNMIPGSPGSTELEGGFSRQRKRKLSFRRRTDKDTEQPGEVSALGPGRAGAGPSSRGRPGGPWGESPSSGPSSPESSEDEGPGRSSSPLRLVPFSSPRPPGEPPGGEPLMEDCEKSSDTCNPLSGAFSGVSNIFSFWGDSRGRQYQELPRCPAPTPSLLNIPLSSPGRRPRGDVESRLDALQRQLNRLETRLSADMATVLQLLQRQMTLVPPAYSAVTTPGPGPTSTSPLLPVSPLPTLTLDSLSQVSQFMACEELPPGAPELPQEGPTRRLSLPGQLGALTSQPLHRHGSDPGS", "test": "Inhibition of human ERG by IonWorks patch clamp electrophysiology assay"}, "[4]": {"target": "Potassium voltage-gated channel subfamily A member 5 (Homo sapiens, UniProt P22460)", "sequence (P22460 whole entry)": "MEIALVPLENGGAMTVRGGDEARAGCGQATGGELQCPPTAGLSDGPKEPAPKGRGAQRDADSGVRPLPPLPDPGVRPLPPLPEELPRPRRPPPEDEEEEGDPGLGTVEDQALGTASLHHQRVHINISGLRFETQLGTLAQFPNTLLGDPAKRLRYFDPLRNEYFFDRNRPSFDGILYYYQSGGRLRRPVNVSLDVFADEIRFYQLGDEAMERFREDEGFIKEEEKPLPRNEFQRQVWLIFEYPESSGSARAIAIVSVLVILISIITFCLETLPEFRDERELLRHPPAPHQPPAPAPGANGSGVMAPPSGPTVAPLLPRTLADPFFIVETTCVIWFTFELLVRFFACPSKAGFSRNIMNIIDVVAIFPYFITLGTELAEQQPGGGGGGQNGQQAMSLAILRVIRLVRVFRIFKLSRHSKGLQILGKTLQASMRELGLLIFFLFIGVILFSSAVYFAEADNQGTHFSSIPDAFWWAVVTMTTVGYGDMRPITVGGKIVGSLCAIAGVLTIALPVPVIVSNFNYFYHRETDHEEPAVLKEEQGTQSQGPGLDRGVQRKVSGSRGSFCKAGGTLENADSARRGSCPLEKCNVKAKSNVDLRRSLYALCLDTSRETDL", "test": "Inhibition of human Kv1.5 by IonWorks patch clamp electrophysiology assay"}, "[5]": {"test": "Protein binding in DMEM medium containing 10% fetal calf serum by LC-MS analysis based ultracentrifugation assay", "assay_type": "ADME, cell-free, Bos taurus", "conditions": "cattle, DMEM medium containing 10% fetal calf serum; read-out: PB (converted)"}, "Cytochrome P450 1A2 [6]": {"target": "T1, Cytochrome P450 1A2 (Homo sapiens, UniProt P05177)", "T1 sequence (P05177 whole entry)": "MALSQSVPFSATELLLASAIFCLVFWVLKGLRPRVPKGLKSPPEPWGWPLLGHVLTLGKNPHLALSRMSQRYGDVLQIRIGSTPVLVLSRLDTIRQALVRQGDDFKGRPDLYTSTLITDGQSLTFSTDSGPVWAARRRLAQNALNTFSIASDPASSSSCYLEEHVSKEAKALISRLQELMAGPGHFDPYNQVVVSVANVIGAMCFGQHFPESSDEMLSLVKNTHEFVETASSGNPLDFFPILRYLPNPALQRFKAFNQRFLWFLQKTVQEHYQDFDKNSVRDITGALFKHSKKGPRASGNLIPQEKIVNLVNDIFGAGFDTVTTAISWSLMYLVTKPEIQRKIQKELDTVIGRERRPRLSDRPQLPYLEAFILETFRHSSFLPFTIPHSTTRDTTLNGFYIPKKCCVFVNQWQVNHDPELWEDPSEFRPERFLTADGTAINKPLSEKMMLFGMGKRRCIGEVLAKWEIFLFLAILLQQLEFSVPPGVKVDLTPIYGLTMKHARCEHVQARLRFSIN", "test": "Inhibition of CYP1A2 in human liver microsomes using phenacetin as substrate measured for 10 to 30 mins in presence of NADPH regenerating system by UPLC-MS analysis", "assay_type": "ADME"}, "[7]": {"test": "AUC (0 to infinity) in Swiss mouse at […], iv administered as bolus dose measured up to 24 hrs by UPLC-MS analysis", "assay_type": "ADME, organism-based", "design": "dose 2.8 mg/kg, route intravenous, time infinity", "conditions": "in vivo"}, "[8]": {"test": "Cmax in Swiss mouse at 10.5 mg/kg, po via gavage measured up to 24 hrs by UPLC-MS analysis", "assay_type": "ADME, organism-based", "design": "dose 10.5 mg/kg, route oral", "conditions": "in vivo"}, "[9]": {"test": "Apparent half life in Swiss mouse at 18.3 mg/kg, po via gavage measured up to 24 hrs by UPLC-MS analysis", "assay_type": "ADME, organism-based", "conditions": "in vivo"}, "[10]": {"test": "Cmax in Swiss mouse at 18.3 mg/kg, po via gavage measured up to 24 hrs by UPLC-MS analysis", "assay_type": "ADME, organism-based", "design": "dose 18.3 mg/kg, route oral", "conditions": "in vivo"}, "[11]": {"test": "Cmax in Swiss mouse blood at 18.3 mg/kg, po via gavage measured up to 24 hrs by UPLC-MS analysis", "assay_type": "ADME, organism-based", "design": "dose 18.3 mg/kg, route oral", "conditions": "in vivo"}, "[12]": {"test": "Oral bioavailability in Swiss mouse at 18.3 mg/kg dosed via gavage measured up to 24 hrs by UPLC-MS analysis", "assay_type": "ADME, organism-based", "conditions": "in vivo"}, "[13]": {"test": "Cmax in Swiss mouse at 50 mg/kg, po via gavage measured up to 24 hrs by UPLC-MS analysis", "assay_type": "ADME, organism-based", "design": "dose 50 mg/kg, route oral", "conditions": "in vivo"}, "[14]": {"test": "AUC (0 to infinity) in Swiss mouse at 50 mg/kg, po via gavage measured up to 24 hrs by UPLC-MS analysis", "assay_type": "ADME, organism-based", "design": "dose 50 mg/kg, route oral, time infinity", "conditions": "in vivo"}, "[15]": {"test": "Clearance in Sprague-Dawley rat plasma at […], iv administered as infusion for 10 mins and measured up to 24 hrs by LC-MS analysis", "assay_type": "ADME, organism-based", "conditions": "in vivo"}, "[16]": {"test": "Volume of distribution at steady state in Sprague-Dawley rat at […], iv administered as infusion for 10 mins and measured up to 24 hrs by LC-MS analysis", "assay_type": "ADME, organism-based", "conditions": "in vivo, read-out: Vdss"}, "[17]": {"test": "Cmax in Sprague-Dawley rat at 3 mg/kg, po administered via gavage measured up to 24 hrs by LC-MS analysis", "assay_type": "ADME, organism-based", "design": "dose 3 mg/kg, route oral", "conditions": "in vivo"}, "[18]": {"test": "AUC (0 to infinity) in Sprague-Dawley rat at 3 mg/kg, po administered via gavage measured up to 24 hrs by LC-MS analysis", "assay_type": "ADME, organism-based", "design": "dose 3 mg/kg, route oral, time infinity", "conditions": "in vivo"}, "[19]": {"test": "Oral bioavailability in Sprague-Dawley rat at 3 mg/kg administered via gavage measured up to 24 hrs by LC-MS analysis", "assay_type": "ADME, organism-based", "conditions": "in vivo"}, "[20]": {"test": "Apparent half life in Sprague-Dawley rat at 33 mg/kg, po administered via gavage measured up to 24 hrs by LC-MS analysis", "assay_type": "ADME, organism-based", "conditions": "in vivo"}, "[21]": {"test": "Oral bioavailability in Sprague-Dawley rat at 33 mg/kg administered via gavage measured up to 24 hrs by LC-MS analysis", "assay_type": "ADME, organism-based", "conditions": "in vivo"}, "[22]": {"test": "Cmax in NOD-SCID IL2Rgamma null mouse blood infected with Plasmodium falciparum 3D70087/N9 at 10 mg/kg, po qd for 4 days starting from 3 days post infection and measured after 24 hrs post dose by LC-MS/MS analysis", "assay_type": "ADME, organism-based", "design": "dose 10 mg/kg, route oral"}, "[23]": {"test": "fAUC in Plasmodium falciparum 3D70087/N9 infected po dosed NOD-SCID IL2Rgamma null mouse blood administered once daily for 4 days", "assay_type": "ADME, organism-based", "conditions": "in vivo, 96 h"}, "Albumin": {"target": "Albumin (Homo sapiens, UniProt P02768)", "sequence (P02768 whole entry)": "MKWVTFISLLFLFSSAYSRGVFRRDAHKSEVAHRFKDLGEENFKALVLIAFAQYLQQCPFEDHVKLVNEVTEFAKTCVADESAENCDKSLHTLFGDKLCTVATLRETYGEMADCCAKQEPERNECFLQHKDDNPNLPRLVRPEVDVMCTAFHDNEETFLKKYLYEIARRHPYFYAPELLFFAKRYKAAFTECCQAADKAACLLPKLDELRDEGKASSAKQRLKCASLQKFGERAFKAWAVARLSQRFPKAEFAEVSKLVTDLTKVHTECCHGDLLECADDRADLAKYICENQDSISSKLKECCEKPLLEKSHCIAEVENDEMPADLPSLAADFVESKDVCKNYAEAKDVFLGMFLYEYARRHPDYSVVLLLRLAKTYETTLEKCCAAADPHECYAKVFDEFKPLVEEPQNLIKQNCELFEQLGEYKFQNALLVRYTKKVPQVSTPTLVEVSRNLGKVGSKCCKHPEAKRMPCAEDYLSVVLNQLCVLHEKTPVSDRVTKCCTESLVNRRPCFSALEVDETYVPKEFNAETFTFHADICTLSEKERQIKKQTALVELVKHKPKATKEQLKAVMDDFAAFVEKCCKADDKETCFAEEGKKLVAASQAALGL", "test": "Binding affinity to albumin (unknown origin) by chromatographic method", "assay_type": "ADME", "conditions": "albumin, read-out: PB (converted)"}, "Cytochrome P450 1A2 [24]": {"target": "T1, Cytochrome P450 1A2", "test": "Time-dependent inhibition of CYP1A2 in human liver microsomes using phenacetin as substrate in presence of NADPH regenerating system by UPLC-MS analysis", "assay_type": "ADME"}, "Cytochrome P450 1A2 [25]": {"target": "T1, Cytochrome P450 1A2", "test": "Time-dependent inhibition of CYP1A2 in human liver microsomes using phenacetin as substrate in absence of NADPH regenerating system by UPLC-MS analysis", "assay_type": "ADME"}, "Cytochrome P450 2C9": {"target": "Cytochrome P450 2C9 (Homo sapiens, UniProt P11712)", "sequence (P11712 whole entry)": "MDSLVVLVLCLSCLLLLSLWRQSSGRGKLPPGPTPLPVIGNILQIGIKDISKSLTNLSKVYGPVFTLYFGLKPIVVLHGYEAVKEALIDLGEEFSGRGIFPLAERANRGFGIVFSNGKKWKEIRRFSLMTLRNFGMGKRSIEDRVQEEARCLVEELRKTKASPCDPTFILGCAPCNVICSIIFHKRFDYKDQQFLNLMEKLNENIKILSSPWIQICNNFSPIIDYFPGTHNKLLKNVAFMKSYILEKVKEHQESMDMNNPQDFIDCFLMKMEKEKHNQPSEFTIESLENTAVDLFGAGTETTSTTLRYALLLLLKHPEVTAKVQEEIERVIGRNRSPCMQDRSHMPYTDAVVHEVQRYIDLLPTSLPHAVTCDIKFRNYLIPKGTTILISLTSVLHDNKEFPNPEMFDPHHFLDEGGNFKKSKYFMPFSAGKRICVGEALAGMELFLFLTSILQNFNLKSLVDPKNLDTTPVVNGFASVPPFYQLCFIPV", "test": "Time-dependent inhibition of CYP2C9 in human liver microsomes using tolbutamide as substrate in absence of NADPH regenerating system by UPLC-MS analysis", "assay_type": "ADME"}, "[26]": {"test": "Toxicity in Plasmodium falciparum 3D70087/N9 infected NOD-SCID IL2Rgamma null mouse assessed as death at 10 mg/kg, po administered once daily for 4 days measured 24 hrs post dose", "assay_type": "organism-based", "conditions": "in vivo"}, "[27]": {"test": "Toxicity in Plasmodium falciparum 3D70087/N9 infected NOD-SCID IL2Rgamma null mouse at 50 mg/kg, po administered once daily for 4 days measured 24 hrs post dose", "assay_type": "organism-based", "conditions": "in vivo"}, "[28]": {"conditions": "simulated gi fluid, pH 1.6"}, "[29]": {"conditions": "simulated gi fluid, pH 6.5"}, "[30]": {"conditions": "simulated gi fluid, pH 5.8"}, "Plasmodium falciparum [31]": {"system": "Plasmodium falciparum"}, "physchem": {"test": "physchem", "conditions": "octanol/water, pH 7.4"}, "CYP3A4/5": {"target": "CYP3A4/5 (Homo sapiens, UniProt P08684+P20815)", "test": "in vitro", "conditions": "liver microsomes, probe midazolam"}, "[32]": {"test": "Intrinsic clearance in liver microsomes assessed as per mg protein", "conditions": "read-out: CLH"}},
  "data": [
    {"smiles": "Cc1c(Cc2ccc(C(F)(F)F)nc2)c[nH]c1C(=O)NC1CC1", "values": [
      {"measurement": "microsomal CLint", "setting": "[1]", "value": 10, "unit": "µL/min/mg"},
      {"measurement": "EC50", "setting": "Plasmodium falciparum [2]", "value": 0.024, "unit": "µM"},
      {"measurement": "CC50", "setting": "L1210", "value": "> 50", "unit": "µM"},
      {"measurement": "EC50", "setting": "[3]", "value": "> 33", "unit": "µM"},
      {"measurement": "EC50", "setting": "[4]", "value": "> 11", "unit": "µM"},
      {"measurement": "fraction unbound", "setting": "[5]", "value": 0.685},
      {"measurement": "IC50", "setting": "Cytochrome P450 1A2 [6]", "value": "> 20", "unit": "µM"},
      {"measurement": "AUC", "setting": "[7]", "value": 5.6, "unit": "µM·h"},
      {"measurement": "Cmax", "setting": "[8]", "value": 4.6, "unit": "µM"},
      {"measurement": "t1/2(app)", "setting": "[9]", "value": 2.6, "unit": "h"},
      {"measurement": "Cmax", "setting": "[10]", "value": 8.4, "unit": "µM"},
      {"measurement": "Cmax", "setting": "[11]", "value": 6.7, "unit": "µM"},
      {"measurement": "F", "setting": "[12]", "value": "> 100", "unit": "%"},
      {"measurement": "Cmax", "setting": "[13]", "value": 42.3, "unit": "µM"},
      {"measurement": "AUC", "setting": "[14]", "value": 220, "unit": "µM·h"},
      {"measurement": "clearance", "setting": "[15]", "value": 28.6, "unit": "mL/min/kg"},
      {"measurement": "Vd", "setting": "[16]", "value": 4.7, "unit": "L/kg"},
      {"measurement": "Cmax", "setting": "[17]", "value": 1.7, "unit": "µM"},
      {"measurement": "AUC", "setting": "[18]", "value": 5.1, "unit": "µM·h"},
      {"measurement": "F", "setting": "[19]", "value": 91, "unit": "%"},
      {"measurement": "t1/2(app)", "setting": "[20]", "value": 2.8, "unit": "h"},
      {"measurement": "F", "setting": "[21]", "value": "> 100", "unit": "%"},
      {"measurement": "Cmax", "setting": "[22]", "value": 0.6, "unit": "µM"},
      {"measurement": "fAUC", "setting": "[23]", "value": 1100, "unit": "ng·h/mL"},
      {"measurement": "fraction unbound", "setting": "Albumin", "value": 0.238},
      {"measurement": "TDI", "setting": "Cytochrome P450 1A2 [24]", "value": "Not Active"},
      {"measurement": "TDI", "setting": "Cytochrome P450 1A2 [25]", "value": "Not Active"},
      {"measurement": "TDI", "setting": "Cytochrome P450 2C9", "value": "Not Active"},
      {"measurement": "Activity", "setting": "[26]", "value": "Toxic"},
      {"measurement": "Activity", "setting": "[27]", "value": "Toxic"},
      {"measurement": "solubility", "setting": "[28]", "value": 46.4, "unit": "µg/mL"},
      {"measurement": "solubility", "setting": "[29]", "value": 60.1, "unit": "µg/mL"},
      {"measurement": "solubility", "setting": "[30]", "value": 115, "unit": "µg/mL"},
      {"measurement": "fEC50", "setting": "Plasmodium falciparum [31]", "value": 0.0077, "unit": "µM"},
      {"measurement": "logD", "setting": "physchem", "value": 2.8},
      {"measurement": "IC50", "setting": "CYP3A4/5", "value": "> 20", "unit": "µM"},
      {"measurement": "microsomal CLint", "setting": "[32]", "value": 24, "unit": "µL/min/mg"}
    ]}
  ]
}
